Measured values as given in patent publication US8710043B2, “TRPM8 antagonists and their use in treatments” (Amgen Inc., priority 2011, dated 2014).

biological target: T1, human TRPM8 (Homo sapiens, UniProt Q7Z2W7); assay: Luminescence readout assay for measuring intracellular calcium, icilin activation; type: cell-based; conditions: CHO cells expressing human TRPM8, aequorin luminescence, 1 μM icilin activation; read-out: hTRPM8 IC50
T1 construct: expressed in transfected cells; host or cells: Chinese hamster ovary (CHO) cells, T-REx tetracycline-inducible system, co-transfected with aequorin
T1 sequence (Q7Z2W7 whole entry): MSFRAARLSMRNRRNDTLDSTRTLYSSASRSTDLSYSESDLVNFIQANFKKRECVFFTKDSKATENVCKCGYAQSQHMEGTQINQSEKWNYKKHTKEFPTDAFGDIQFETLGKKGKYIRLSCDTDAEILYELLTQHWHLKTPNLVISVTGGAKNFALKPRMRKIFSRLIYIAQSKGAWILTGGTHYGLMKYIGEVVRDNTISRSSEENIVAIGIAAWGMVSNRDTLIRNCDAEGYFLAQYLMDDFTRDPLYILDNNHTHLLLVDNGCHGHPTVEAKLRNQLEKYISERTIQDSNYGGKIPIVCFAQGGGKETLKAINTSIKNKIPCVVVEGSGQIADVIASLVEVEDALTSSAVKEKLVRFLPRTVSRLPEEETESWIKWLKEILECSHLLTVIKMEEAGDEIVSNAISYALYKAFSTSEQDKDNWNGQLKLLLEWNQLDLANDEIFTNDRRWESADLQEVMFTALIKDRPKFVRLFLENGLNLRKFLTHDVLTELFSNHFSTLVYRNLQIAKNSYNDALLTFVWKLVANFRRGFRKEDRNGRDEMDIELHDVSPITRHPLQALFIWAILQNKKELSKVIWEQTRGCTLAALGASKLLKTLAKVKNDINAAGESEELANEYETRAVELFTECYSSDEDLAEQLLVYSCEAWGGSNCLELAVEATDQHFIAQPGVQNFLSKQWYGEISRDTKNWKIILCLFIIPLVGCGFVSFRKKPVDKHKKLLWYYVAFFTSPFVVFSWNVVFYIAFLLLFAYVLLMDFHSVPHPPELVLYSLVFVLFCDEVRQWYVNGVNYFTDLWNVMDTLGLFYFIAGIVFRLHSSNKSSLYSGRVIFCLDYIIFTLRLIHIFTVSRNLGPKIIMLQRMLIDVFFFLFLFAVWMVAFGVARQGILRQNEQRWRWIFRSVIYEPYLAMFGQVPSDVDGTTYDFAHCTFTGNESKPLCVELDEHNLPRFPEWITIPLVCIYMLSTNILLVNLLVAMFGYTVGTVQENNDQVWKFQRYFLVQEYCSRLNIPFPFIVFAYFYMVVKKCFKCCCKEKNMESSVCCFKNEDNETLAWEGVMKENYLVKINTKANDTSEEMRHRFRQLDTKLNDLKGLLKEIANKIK
How it was run: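 The read-out was luminescence reporting intracellular calcium, recorded by a CCD-based luminometer. Compounds were preincubated for 2.5 min before agonist challenge with 1 μM icilin. Human TRPM8 was expressed in a stable T-REx CHO line, induced with 0.5 μg/mL tetracycline the day before.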

IC50 [µM] | SMILES
0.0156 | O=C(N[C@@H](c1ccc(OC(F)(F)F)c(F)c1)c1ncccc1F)c1ccc(=O)[nH]n1 [Example 349, (S)-N-((3-fluoro-4-(trifluoromethoxy)phenyl)(3-fluoropyridin-2-yl)methyl)-6-oxo-1,6-dihydropyridazine-3-carboxamide]
0.317 | N#Cc1cccnc1[C@@H](NC(=O)c1ccc2cccnc2c1)c1ccc(C(F)(F)F)cc1 [Example 278, (S)—N-((3-Cyanopyridin-2-yl)(4-(trifluoromethyl)phenyl)-methyl)quinoline-7-carboxamide]
0.0161 | CNC(=O)c1ccc(C(=O)N[C@@H](c2ccc(C(F)(F)F)cc2)c2ncccc2F)nc1 [Example 273, (S)—N^2-((3-Fluoropyridin-2-yl)(4-(trifluoromethyl)phenyl)-methyl)-N^5-methylpyridine-2,5-dicarboxamide 2,2,2-trifluoroacetate]
0.0111 | O=C1Cc2cc(C(=O)N[C@@H](c3ccc(OC(F)(F)F)c(F)c3)c3ncccc3F)ccc2N1 [Example 346, (S)-N-((3-fluoro-4-(trifluoromethoxy)phenyl)(3-fluoropyridin-2-yl)methyl)-2-oxoindoline-5-carboxamide]
0.0144 | O=C(N[C@@H](c1ccc(OC(F)(F)F)c(F)c1)c1ncccc1F)c1ccc(=O)n(C2COC2)c1 [Example 304, (S)-N-((3-fluoro-4-(trifluoromethoxy)phenyl)(3-fluoropyridin-2-yl)methyl)-1-(oxetan-3-yl)-6-oxo-1,6-dihydropyridine-3-carboxamide]
0.0622 | O=C(N[C@@H](c1ccc(C(F)(F)F)cc1)c1ncccc1C(F)(F)F)c1ccc2c(c1)C(=O)NC2 [Example 265, (S)-3-oxo-N-((4-(trifluoromethyl)phenyl)(3-(trifluoromethyl)-pyridin-2-yl)methyl)isoindoline-5-carboxamide]
0.136 | COc1ccc([C@H](NC(=O)c2ccc(=O)[nH]c2)c2ncccc2F)cc1F [Example 336, (S)-N-((3-fluoro-4-methoxyphenyl)(3-fluoropyridin-2-yl)methyl)-6-oxo-1,6-dihydropyridine-3-carboxamide]
0.841 | COc1ccnc(C(NC(=O)c2ccc(=O)[nH]c2)c2ccc(OC(F)(F)F)c(F)c2)c1 (stereo not drawn) [Example 422, N-((3-fluoro-4-(trifluoromethoxy)phenyl)(4-methoxypyridin-2-yl)methyl)-6-oxo-1,6-dihydropyridine-3-carboxamide]
1.44 | CC(C)(C(=O)O)C(=O)N[C@@H](c1ccc(C(F)(F)F)cc1)c1ncccc1C(F)(F)F [Example 243, (S)-2,2-dimethyl-3-oxo-3-(((4-(trifluoromethyl)phenyl)(3-(trifluoromethyl)pyridin-2-yl)methyl)amino)propanoic acid]
0.0224 | Cn1c(=O)c(=O)n(O)c2ccc(C(=O)N[C@@H](c3ccc(OC(F)(F)F)c(F)c3)c3ncccc3F)cc21 [Example 436, (S)—N-((3-Fluoro-4-(trifluoromethoxy)phenyl)(3-fluoropyridin-2-yl)methyl)-1-hydroxy-4-methyl-2,3-dioxo-1,2,3,4-tetrahydroquinoxaline-6-carboxamide]
0.137 | O=C(N[C@@H](c1ccc(C(F)(F)F)cc1)c1ncccc1C(F)(F)F)c1cccc(OC(F)(F)F)c1 [Example 219, (S)-3-(trifluoromethoxy)-N-((4-(trifluoromethyl)phenyl)(3-(trifluoromethyl)pyridin-2-yl)methyl)benzamide]
0.133 | CCNc1ccc(C(=O)N[C@@H](c2ccc(C(F)(F)F)cc2)c2ncccc2C(F)(F)F)cn1 [Example 263, (S)-6-(Ethylamino)-N-((4-(trifluoromethyl)phenyl)(3-(trifluoromethyl)pyridin-2-yl)methyl)nicotinamide]
2.98 | Cc1c[nH]c(C(=O)N[C@@H](c2ccc(OC(F)(F)F)c(F)c2)c2ncccc2F)n1 [Example 388, (S)-N-((3-fluoro-4-(trifluoromethoxy)phenyl)(3-fluoropyridin-2-yl)methyl)-4-methyl-1H-imidazole-2-carboxamide 2,2,2-trifluoroacetate]
0.346 | O=C(CCc1ccccn1)N[C@@H](c1ccc(C(F)(F)F)cc1)c1ncccc1C(F)(F)F [Example 284, (S)-3-(Pyridin-2-yl)-N-((4-(trifluoromethyl)phenyl)(3-(trifluoromethyl)pyridin-2-yl)methyl)propanamide]
0.0141 | Cc1cccnc1[C@@H](NC(=O)c1ccc2oc(=O)[nH]c2c1)c1ccc(OC(F)(F)F)c(F)c1 [Example 358, (S)-N-((3-fluoro-4-(trifluoromethoxy)phenyl)(3-methylpyridin-2-yl)methyl)-2-oxo-2,3-dihydrobenzo[d]oxazole-5-carboxamide]
0.733 | CO[C@@](C(=O)N[C@@H](c1ccc(C(F)(F)F)cc1)c1ncccc1C(F)(F)F)(c1ccccc1)C(F)(F)F [Example 237, 3,3,3-trifluoro-2-methoxy-2-phenyl-N-((S)-(4-(trifluoromethyl)phenyl)(3-(trifluoromethyl)pyridin-2-yl)methyl)propanamide]
0.016 | O=C(N[C@@H](c1ccc(C(F)(F)F)cc1)c1ncccc1C(F)(F)F)c1ccc2ncsc2c1 [Example 239, (S)-N-((4-(trifluoromethyl)phenyl)(3-(trifluoromethyl)pyridin-2-yl)methyl)benzo[d]thiazole-6-carboxamide]
0.01 | Cc1cccnc1[C@@H](NC(=O)c1ccc(=O)[nH]c1)c1ccc(OC(F)(F)F)c(F)c1 [Example 347, (S)-N-((3-fluoro-4-(trifluoromethoxy)phenyl)(3-methylpyridin-2-yl)methyl)-6-oxo-1,6-dihydropyridine-3-carboxamide]
0.0069 | O=C(N[C@@H](c1ccc(OC(F)(F)F)c(F)c1)c1ncccc1F)c1c[nH]c(=O)c(F)c1 [Example 400, (S)-5-fluoro-N-((3-fluoro-4-(trifluoromethoxy)phenyl)(3-fluoropyridin-2-yl)methyl)-6-oxo-1,6-dihydropyridine-3-carboxamide]

Further lines, the compound ahead of its results:

SMILES | IC50 [µM]
O=C(N[C@@H](c1ccc(C(F)(F)F)cc1)c1ncccc1F)c1ccc2cccnc2c1 (stereo in doubt) [Example 204, N-((3-fluoropyridin-2-yl)(4-(trifluoromethyl)phenyl)methyl)quinoline-7-carboxamide] | 0.104
CC(O)c1ccc([C@H](NC(=O)c2ccc3cccnc3c2)c2ncccc2C(F)(F)F)cc1 (stereo partly drawn) [Example 26, N-((1S)-(4-(1-hydroxyethyl)phenyl)(3-(trifluoromethyl)pyridin-2-yl)methyl)quinoline-7-carboxamide] | 3.29
Cn1cc(C(=O)N[C@@H](c2ccc(C(F)(F)F)cc2)c2ncccc2C(F)(F)F)ccc1=O [Example 50, (S)-1-methyl-6-oxo-N-((4-(trifluoromethyl)phenyl)(3-(trifluoromethyl)pyridin-2-yl)methyl)-1,6-dihydropyridine-3-carboxamide] | 0.0105
O=C(N[C@@H](c1ccc(C(F)(F)F)cc1)c1ncccc1F)c1cccc(F)c1 [Example 187, (S)-3-fluoro-N-((3-fluoropyridin-2-yl)(4-(trifluoromethyl)phenyl)methyl)benzamide] | 0.0453
O=C(N[C@@H](c1cnc2c(F)cccc2c1)c1ncccc1C(F)(F)F)c1ccc2cccnc2c1 [Example 20, (S)-N-((8-fluoroquinolin-3-yl)(3-(trifluoromethyl)pyridin-2-yl)methyl)quinoline-7-carboxamide] | 0.187
O=C(N[C@@H](c1ccc(C(F)(F)F)cc1)c1ncccc1F)c1ccc2[nH]c(=O)ccc2c1 [Example 104, (S)-N-((3-fluoropyridin-2-yl)(4-(trifluoromethyl)phenyl)methyl)-2-oxo-1,2-dihydroquinoline-6-carboxamide] | 0.0062
O=C(N[C@@H](c1ccc(C(F)(F)F)cc1)c1ccccn1)c1ccc(=O)[nH]c1 [Example 201, (S)-6-oxo-N-(pyridin-2-yl(4-(trifluoromethyl)phenyl)methyl)-1,6-dihydropyridine-3-carboxamide 2,2,2-trifluoroacetate] | 0.0293
CC#Cc1cccnc1[C@@H](NC(=O)c1ccc(OC)nc1)c1ccc(C(F)(F)F)cc1 [Example 96, (S)-6-methoxy-N-((3-(prop-1-yn-1-yl)pyridin-2-yl)(4-(trifluoromethyl)phenyl)methyl)nicotinamide] | 0.0376
CC#Cc1cccnc1[C@@H](NC(=O)c1ccc(=O)[nH]c1)c1ccc(C(F)(F)F)cc1 [Example 92, (S)-6-oxo-N-((3-(prop-1-yn-1-yl)pyridin-2-yl)(4-(trifluoromethyl)phenyl)methyl)-1,6-dihydropyridine-3-carboxamide] | 0.0103
O=C1Cc2ccc(C(=O)N[C@@H](c3ccc(OC(F)(F)F)cc3)c3ncccc3F)cc2N1 [Example 90, (S)-N-((3-fluoropyridin-2-yl)(4-(trifluoromethoxy)phenyl)methyl)-2-oxoindoline-6-carboxamide] | 0.0062
Cc1ccc(C(=O)N[C@@H](c2ccc(C(F)(F)F)cc2)c2ncccc2C(F)(F)F)cn1 [Example 40, (S)-6-methyl-N-((4-(trifluoromethyl)phenyl)(3-(trifluoromethyl)pyridin-2-yl)methyl)nicotinamide] | 0.0134
COc1ncc(C(=O)N[C@@H](c2ccc(C(F)(F)F)cc2)c2ncccc2C(F)(F)F)cn1 [Example 42, (S)-2-methoxy-N-((4-(trifluoromethyl)phenyl)(3-(trifluoromethyl)pyridin-2-yl)methyl)pyrimidine-5-carboxamide] | 0.0539
COc1ccc2cc([C@H](NC(=O)c3ccc4cccnc4c3)c3ncccc3C(F)(F)F)cnc2c1 [Example 8, (S)-N-((7-methoxyquinolin-3-yl)(3-(trifluoromethyl)pyridin-2-yl)methyl)quinoline-7-carboxamide] | 0.0543
CC(C)(O)c1ccc(C(=O)N[C@@H](c2ccc(C(F)(F)F)cc2)c2ncccc2C(F)(F)F)cc1 [Example 121, (S)-4-(2-hydroxypropan-2-yl)-N-((4-(trifluoromethyl)phenyl)(3-(trifluoromethyl)pyridin-2-yl)methyl)benzamide] | 0.247
